In ChEMBL document CHEMBL1126489, “N1-sterically hindered 2H-imidazol-2-one angiotensin II receptor antagonists: The conversion of surmountable antagonists to insurmountable antagonists” (Bioorg Med Chem Lett, 1993):

Target: T1, Angiotensin II receptor (Rattus norvegicus, UniProt P29089+P25095+P35351)
T1 sequence (P29089 whole entry): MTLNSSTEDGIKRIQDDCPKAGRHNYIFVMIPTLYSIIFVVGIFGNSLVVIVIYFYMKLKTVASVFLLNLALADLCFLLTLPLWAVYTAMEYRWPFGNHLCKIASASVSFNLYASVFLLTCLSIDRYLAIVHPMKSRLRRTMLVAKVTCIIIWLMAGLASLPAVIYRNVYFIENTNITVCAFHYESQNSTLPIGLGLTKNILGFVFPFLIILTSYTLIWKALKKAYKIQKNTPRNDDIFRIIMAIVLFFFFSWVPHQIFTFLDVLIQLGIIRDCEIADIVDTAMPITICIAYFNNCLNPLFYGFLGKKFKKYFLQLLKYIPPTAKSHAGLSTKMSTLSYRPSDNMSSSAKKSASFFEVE
T1 sequence (P25095 whole entry): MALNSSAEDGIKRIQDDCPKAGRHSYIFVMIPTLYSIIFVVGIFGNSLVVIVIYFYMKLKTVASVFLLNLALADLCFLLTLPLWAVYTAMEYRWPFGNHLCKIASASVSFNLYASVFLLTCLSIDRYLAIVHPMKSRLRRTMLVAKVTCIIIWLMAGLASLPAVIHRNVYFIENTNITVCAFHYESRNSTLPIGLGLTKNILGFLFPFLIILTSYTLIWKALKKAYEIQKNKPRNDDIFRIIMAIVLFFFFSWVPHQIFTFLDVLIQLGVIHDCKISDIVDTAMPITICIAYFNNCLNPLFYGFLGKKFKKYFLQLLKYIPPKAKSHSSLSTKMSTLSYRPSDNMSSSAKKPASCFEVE
T1 sequence (P35351 whole entry): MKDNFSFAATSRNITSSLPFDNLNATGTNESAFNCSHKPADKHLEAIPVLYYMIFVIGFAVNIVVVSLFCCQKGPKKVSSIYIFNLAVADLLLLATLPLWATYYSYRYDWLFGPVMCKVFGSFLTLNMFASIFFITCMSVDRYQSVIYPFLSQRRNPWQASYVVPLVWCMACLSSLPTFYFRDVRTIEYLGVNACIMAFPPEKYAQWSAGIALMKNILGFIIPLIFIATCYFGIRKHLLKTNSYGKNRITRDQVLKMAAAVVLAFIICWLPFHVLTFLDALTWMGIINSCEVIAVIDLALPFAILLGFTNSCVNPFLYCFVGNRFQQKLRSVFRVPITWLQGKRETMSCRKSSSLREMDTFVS
Assay: Inhibition of [125I]-AII binding to Angiotensin II receptor of rat uterine membrane

SMILES | IC50
CCCCc1cn(-c2ccccc2CC)c(=O)n1Cc1ccc(-c2ccccc2-c2nn[nH]n2)nc1 | 4.5 nM
CCCCc1cn(-c2c(C(C)C)cccc2C(C)C)c(=O)n1Cc1ccc(-c2ccccc2-c2nn[nH]n2)nc1 | 34 nM
CCCCc1cn(-c2c(CC)cccc2CC)c(=O)n1Cc1ccc(-c2ccccc2-c2nn[nH]n2)nc1 | 5 nM
CCCCc1cn(-c2ccccc2C(C)C)c(=O)n1Cc1ccc(-c2ccccc2-c2nn[nH]n2)nc1 | 14 nM
CCCCc1cn(-c2ccccc2C)c(=O)n1Cc1ccc(-c2ccccc2-c2nn[nH]n2)nc1 | 9.4 nM
CCCCc1cn(-c2ccccc2C(C)(C)C)c(=O)n1Cc1ccc(-c2ccccc2-c2nn[nH]n2)nc1 | 19 nM
CCCCc1cn(-c2c(C)cccc2C)c(=O)n1Cc1ccc(-c2ccccc2-c2nn[nH]n2)nc1 | 5 nM
CCCCc1nc(CCCC)n(Cc2ccc(-c3ccccc3-c3nn[nH]n3)cc2)n1 | 5.6 nM
CCCCc1cn(-c2ccccc2)c(=O)n1Cc1ccc(-c2ccccc2-c2nn[nH]n2)nc1 | 45 nM
CCCCC1=NC2(CCCC2)C(=O)N1Cc1ccc(-c2ccccc2-c2nnn[nH]2)cc1 [IRBESARTAN] | 1.3 nM
CCCCc1cn(CCCC)c(=O)n1Cc1ccc(-c2ccccc2-c2nn[nH]n2)cc1 [SC-51895] | 12 nM
CCCCc1cn(CCCC)c(=O)n1Cc1ccc(-c2ccccc2-c2nn[nH]n2)nc1 [SC-52892] | 6.5 nM
CCCCc1cn([C@H]2[C@H](C)CCC[C@@H]2C)c(=O)n1Cc1ccc(-c2ccccc2-c2nn[nH]n2)nc1 [SC-55634] | 4.9 nM
